Results: the supplement of paper PMC10627819
In brackets after ≈: the same amount, converted by molar mass.

What was measured:
[1] = test system: B. subtilis 168; assay: fitness (endpoint OD595 vs no drug) (fraction); higher = more growth
Summary of the method: (§1)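 Volumes were 30 µl per well, or 55 µl for S. pneumoniae, in 384-well plates inoculated at OD595 0.01. Media were TSB, LB Lennox or CY at 37 °C, and OD595 was read every 30 min for 14 h with first-reading background subtraction. Fitness is the ratio of optical density at stationary-phase entry to the robust mean of no-drug controls. That ratio is capped at 1.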

[2] = test system: S. aureus DSM 20231; assay: as above
Summary of the method: as §1

[3] = test system: S. aureus Newman; assay: as above
Summary of the method: as §1

[4] = test system: S. pneumoniae D39V; assay: as above
Summary of the method: as §1

[5] = test system: B. subtilis 168; assay: Bliss interaction score (quartile over a dose matrix) (fitness difference); higher = more antagonism (negative = synergy)
Summary of the method: (§2)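 The Bliss score is observed minus expected fitness, where expected fitness is the product of the single-drug fitness values inferred from the combination data. Fitness is the OD595 at the onset of stationary phase over the plate's robust no-drug mean, capped at 1. Scores are summarised by quartiles over technical, biological and donor/recipient replicates.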

[6] = test system: S. aureus DSM 20231; assay: as above
Summary of the method: as §2

[7] = test system: S. aureus Newman; assay: as above
Summary of the method: as §2

[8] = test system: S. pneumoniae D39V; assay: as above
Summary of the method: as §2

[9] = test system: B. subtilis 168
[10] = test system: S. aureus DSM 20231
[11] = test system: S. aureus Newman
[12] = test system: S. pneumoniae D39V
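Wherever Bliss interaction score (quartile over a dose matrix) is given: first quartile when negative (synergy) and third quartile when positive (antagonism).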

CO/N=C(\C(=O)N[C@@H]1C(=O)N2C(C(=O)O)=C(COC(C)=O)CS[C@H]12)c1csc(N)n1 [Cefotaxime] + CN(N=O)C(=O)N[C@@H](C=O)[C@@H](O)[C@H](O)[C@H](O)CO [Streptozotocin]
fitness, one replicate
Settings | partner 0.15 µg/mL | partner 0.3 µg/mL | partner 0.6 µg/mL
[1], first compound 0.00775 µg/mL | 0.767 | 0.832 | 0.787
[1], first compound 0.0155 µg/mL | 0.721 | 0.743 | 0.715
[1], first compound 0.031 µg/mL | 0.526 | 0.518 | 0.502
[1], first compound 0.5 µg/mL | 0.34 | 0.342 | 0.347
[1], first compound 1 µg/mL | 0.132 | 0.136 | 0.146
[1], first compound 2 µg/mL | 0.0874 | 0.126 | 0.183
[2], first compound 0.039 µg/mL | 0.756 | 0.675 | 0.551
[3], first compound 0.625 µg/mL | 0.0252 | 0.0161 | 0
[3], first compound 1.25 µg/mL | 0.023 | 0.0017 | 0
[3], first compound 2.5 µg/mL | 0.0355 | 0.0302 | 0

fitness
Settings | first compound 0.0018 µg/mL | first compound 0.0035 µg/mL | first compound 0.007 µg/mL | first compound 0.078 µg/mL | first compound 0.156 µg/mL | first compound 0.312 µg/mL
[2], partner 0.15 µg/mL | – | – | – | 0.691 | 0.653 | 0.609
[2], partner 0.3 µg/mL | – | – | – | 0.612 | 0.617 | 0.614
[2], partner 0.6 µg/mL | – | – | – | 0.552 | 0.564 | 0.521
[3], partner 0.15 µg/mL | – | – | – | 0.641 | 0.476 | 0.253
[3], partner 0.3 µg/mL | – | – | – | 0.539 | 0.389 | 0.133
[3], partner 0.6 µg/mL | – | – | – | 0.403 | 0.204 | 0.0516
[4], partner 1.2 µg/mL | 0.957 | 0.963 | 0.889 | – | – | –
[4], partner 2.4 µg/mL | 0.97 | 0.964 | 0.775 | – | – | –
[4], partner 4.8 µg/mL | 0.978 | 0.938 | 0.861 | – | – | –

Settings | Bliss interaction score
[5] | 0.0848
[6] | -0.0448
[7] | -0.0599
[8] | 0.0325

CO/N=C(\C(=O)N[C@@H]1C(=O)N2C(C(=O)O)=C(COC(C)=O)CS[C@H]12)c1csc(N)n1 [Cefotaxime] + C[n+]1ccc(-c2cc[n+](C)cc2)cc1 [Paraquat]
fitness, one replicate
Settings | partner 1.25 µg/mL | partner 2.5 µg/mL | partner 5 µg/mL
[1], first compound 0.00775 µg/mL | 0.847 | 0.764 | 0.596
[1], first compound 0.0155 µg/mL | 0.694 | 0.613 | 0.332
[1], first compound 0.031 µg/mL | 0.494 | 0.423 | 0.279
[2], first compound 0.039 µg/mL | 0.729 | 0.775 | 0.767
[3], first compound 0.625 µg/mL | 0.0489 | 0.0421 | 0.0459
[3], first compound 1.25 µg/mL | 0.0645 | 0.0717 | 0.0769
[3], first compound 2.5 µg/mL | 0.0777 | 0.0674 | 0.0627

fitness
Settings | partner 1.25 µg/mL | partner 1.5 µg/mL | partner 2.5 µg/mL | partner 3 µg/mL | partner 5 µg/mL | partner 6 µg/mL
[1], first compound 0.5 µg/mL | 0.199 | – | 0.171 | – | 0.166 | –
[1], first compound 1 µg/mL | 0.108 | – | 0.0698 | – | 0.0734 | –
[1], first compound 2 µg/mL | 0.0929 | – | 0.0597 | – | 0.0873 | –
[2], first compound 0.078 µg/mL | 0.762 | – | 0.767 | – | 0.748 | –
[2], first compound 0.156 µg/mL | 0.656 | – | 0.704 | – | 0.703 | –
[2], first compound 0.312 µg/mL | 0.611 | – | 0.664 | – | 0.65 | –
[3], first compound 0.078 µg/mL | 0.694 | – | 0.688 | – | 0.702 | –
[3], first compound 0.156 µg/mL | 0.521 | – | 0.542 | – | 0.573 | –
[3], first compound 0.312 µg/mL | 0.304 | – | 0.314 | – | 0.29 | –
[4], first compound 0.0018 µg/mL | – | 0.986 | – | 0.971 | – | 0.957
[4], first compound 0.0035 µg/mL | – | 0.992 | – | ≥ 1 | – | 0.962
[4], first compound 0.007 µg/mL | – | 0.944 | – | 0.93 | – | 0.843

Settings | Bliss interaction score
[5] | -0.0771
[6] | -0.0739
[7] | -0.0297
[8] | -0.0531

CO/N=C(\C(=O)N[C@@H]1C(=O)N2C(C(=O)O)=C(COC(N)=O)CS[C@H]12)c1ccco1 [Cefuroxime]
Settings | MIC [µg/mL]
[9] | 2 (≈ 4.71 µM)
[10] | 0.25 (≈ 0.589 µM)
[11] | 0.25 (≈ 0.589 µM)
[12] | 0.25 (≈ 0.589 µM)

[1]
Settings | fitness
0.195 µg/mL | 0.319
0.39 µg/mL | 0.26
0.78 µg/mL | 0.212
1.562 µg/mL | 0.332
3.125 µg/mL | 0.264
6.25 µg/mL | 0.227

COc1cccc2c1C(=O)c1c(O)c3c(c(O)c1C2=O)C[C@@](O)(C(=O)CO)C[C@@H]3O[C@H]1C[C@H](N)[C@H](O)[C@H](C)O1 [Doxorubicin] + Cc1onc(-c2ccccc2)c1C(=O)N[C@@H]1C(=O)N2[C@@H]1SC(C)(C)[C@@H]2C(=O)O [Oxacillin]
fitness
Settings | first compound 0.25 µg/mL | first compound 0.5 µg/mL | first compound 0.625 µg/mL | first compound 1 µg/mL | first compound 1.25 µg/mL | first compound 2.5 µg/mL
[1], partner 0.002 µg/mL | – | – | 0.995 | – | 0.895 | 0.749
[1], partner 0.004 µg/mL | – | – | 0.932 | – | 0.89 | 0.675
[1], partner 0.008 µg/mL | – | – | 0.881 | – | 0.871 | 0.512
[2], partner 0.0156 µg/mL | – | – | 0.738 | – | 0.756 | 0.599
[2], partner 0.0312 µg/mL | – | – | 0.604 | – | 0.585 | 0.532
[2], partner 0.0625 µg/mL | – | – | 0.479 | – | 0.481 | 0.466
[3], partner 0.0156 µg/mL | – | – | 0.705 | – | 0.671 | 0.671
[3], partner 0.0312 µg/mL | – | – | 0.637 | – | 0.633 | 0.645
[3], partner 0.0625 µg/mL | – | – | 0.582 | – | 0.583 | 0.569
[4], partner 0.005 µg/mL | ≥ 1 | ≥ 1 | – | 0.997 | – | –
[4], partner 0.01 µg/mL | 0.941 | 0.973 | – | 0.924 | – | –
[4], partner 0.02 µg/mL | 0.889 | 0.897 | – | 0.891 | – | –
[4], partner 0.04 µg/mL | 0.252 | 0.337 | – | 0.323 | – | –

fitness, [1], one replicate
Settings | partner 0.0078 µg/mL | partner 0.0155 µg/mL | partner 0.031 µg/mL | partner 0.075 µg/mL | partner 0.15 µg/mL | partner 0.3 µg/mL
first compound 0.625 µg/mL | ≥ 1 | ≥ 1 | 0.943 | 0.468 | 0.0267 | 0.0431
first compound 1.25 µg/mL | 0.965 | 0.934 | 0.857 | 0.496 | 0.0281 | 0.0304
first compound 2.5 µg/mL | 0.652 | 0.666 | 0.477 | 0.0449 | 0.0184 | 0.0211

Settings | Bliss interaction score
[5] | 0.0758
[6] | -0.0629
[7] | 0.0538
[8] | 0.0665
